This note sets out measurements from ChEMBL document CHEMBL1201862, “PubChem BioAssay data set” (2004).

Structures are written as SMILES.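 48-hour exposure; five concentrations; linearly interpolated endpoints. GI50 marks 50% less growth.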 Active and inactive are the calls of the source. No stated cut-off is given here; in the data, active = GI50 up to about 1.1 µM and inactive = higher. Bounds are passed on as bounds.

Among the test systems are HT-29; NCI-H23; SN12C; ACHN; 786-0; RXF 393; MOLT-4; Hs-578T; MCF7; MDA-MB-231; OVCAR-8; SK-MEL-28; EKVX; HCT-15; SK-MEL-2; SR; Malme-3M; OVCAR-5; RPMI-8226; OVCAR-3.
Common to all, as to experiment: NCI-60 cell line screen, 48 h

For `COc1ccc(C(=O)/C=C2\C(=O)Nc3ccc(Br)cc32)cc1`, the GI50 with HT-29 is 1.82 µM (inactive); in the assay on NCI-H23, 4.27 µM (inactive); with SN12C it was 2.88 µM (inactive); in the assay with ACHN, 1.89 µM (inactive); in the assay on 786-0, 1.97 µM (inactive); with RXF 393 it was 2.29 µM (inactive). The GI50 with MOLT-4 is 2.41 µM (inactive); in the assay on Hs-578T it was 13.8 µM (inactive); in the assay on MCF7, 6.44 µM (inactive); in the assay on MDA-MB-231 it was 5.57 µM (inactive); with OVCAR-8, 2.07 µM (inactive); in the assay with SK-MEL-28, 10.5 µM (inactive). Further, the GI50 in the assay on EKVX was 13.6 µM (inactive); in the assay with HCT-15, 2.13 µM; with SK-MEL-2 it was 16.1 µM (inactive); in the assay with SR, 2.96 µM (inactive); in the assay with Malme-3M it was 8.22 µM (inactive); with OVCAR-5, 19.3 µM (inactive). Moreover, the GI50 in the assay with RPMI-8226 was 1.72 µM (inactive); with OVCAR-3 it was 2.97 µM (inactive).
As for `OCC1OC(N2CCN(C3OC(CO)C(O)C(O)C3O)CC2)C(O)C(O)C1O` (stereo not drawn), the GI50 with HT-29, in the assay with NCI-H23, in the assay with SN12C, in the assay on ACHN, in the assay on 786-0 and with RXF 393 was > 100 µM (inactive) in each case. The GI50 with MOLT-4, with Hs-578T, with MCF7, in the assay on MDA-MB-231, in the assay with OVCAR-8 and in the assay with SK-MEL-28 was > 100 µM (inactive) each time. For the same compound, the GI50 with EKVX was > 100 µM (inactive); in the assay on HCT-15, above 100 µM; in the assay with SK-MEL-2 it was > 100 µM (inactive); in the assay on SR, > 100 µM (inactive); in the assay on Malme-3M it was > 100 µM (inactive); in the assay on OVCAR-5, > 100 µM (inactive). The GI50 in the assay on RPMI-8226 and with OVCAR-3 was > 100 µM (inactive) each time.
As for `O=C(NNC(=S)NC1CCCCC1)C12CC3CC(CC(C3)C1)C2`, the GI50 in the assay with HT-29 is > 100 µM (inactive); in the assay on NCI-H23, > 100 µM (inactive); with SN12C, > 100 µM (inactive); in the assay with ACHN, > 100 µM (inactive); in the assay with 786-0, 61.8 µM (inactive); with RXF 393, > 100 µM (inactive). Further, the GI50 in the assay on MOLT-4, with Hs-578T, in the assay with MCF7, in the assay with MDA-MB-231, in the assay on OVCAR-8 and with SK-MEL-28 was > 100 µM (inactive) in each case. Further, the GI50 with HCT-15 was above 100 µM; in the assay on SK-MEL-2 it was > 100 µM (inactive); in the assay with SR, 0.637 µM (active); with Malme-3M, > 100 µM (inactive); in the assay on OVCAR-5 it was > 100 µM (inactive); in the assay on RPMI-8226, > 100 µM (inactive). Besides, the GI50 in the assay with OVCAR-3 is > 100 µM (inactive).
Regarding `CN(CCCn1ccnc1[N+](=O)[O-])CCCn1ccnc1[N+](=O)[O-]`, the GI50 with HT-29, in the assay on NCI-H23, in the assay on SN12C, in the assay on ACHN, in the assay on 786-0 and in the assay on RXF 393 was > 100 µM (inactive) in each case. Besides, the GI50 is 0.0861 µM (active) in the assay with MOLT-4; > 100 µM (inactive) in the assay with Hs-578T; > 100 µM (inactive) in the assay on MCF7; > 100 µM (inactive) with MDA-MB-231; > 100 µM (inactive) with OVCAR-8; > 100 µM (inactive) with SK-MEL-28. Also, the GI50 is > 100 µM (inactive) with EKVX; above 100 µM in the assay on HCT-15; > 100 µM (inactive) in the assay with SK-MEL-2; > 100 µM (inactive) in the assay with SR; > 100 µM (inactive) in the assay on Malme-3M; > 100 µM (inactive) in the assay on OVCAR-5. Besides, the GI50 in the assay on RPMI-8226 and with OVCAR-3 was > 100 µM (inactive) each time.
Turning to `CN(CCCNC(=O)c1c2ccc3ccccc3c2nn1C)CCCNC(=O)c1c2ccc3ccccc3c2nn1C`, the GI50 in the assay on HT-29 is 2.53 µM (inactive); in the assay on NCI-H23, 15.1 µM (inactive); in the assay on SN12C, 12.4 µM (inactive); in the assay on ACHN, 11.5 µM (inactive); in the assay on 786-0 it was 11.6 µM (inactive); with RXF 393, 5.94 µM (inactive). The GI50 with MOLT-4 is 4.85 µM (inactive); with Hs-578T, 14.2 µM (inactive); in the assay with MCF7, 3.94 µM (inactive); in the assay with MDA-MB-231, 10.5 µM (inactive); in the assay with OVCAR-8 it was 13.3 µM (inactive); in the assay with SK-MEL-28 it was 2.3 µM (inactive). Moreover, the GI50 in the assay on EKVX was 9.14 µM (inactive); in the assay with HCT-15, 6.93 µM; in the assay on SK-MEL-2, 5.04 µM (inactive); in the assay on SR, 3 µM (inactive); with Malme-3M, 3.03 µM (inactive); in the assay with OVCAR-5, 11.5 µM (inactive). Also, the GI50 in the assay on RPMI-8226 is 1.95 µM (inactive); in the assay on OVCAR-3, 16 µM (inactive).
For the compound `Cc1ccc(SCC(CSCCO)OCn2cnc3c2N=C(N)NC32OCCO2)cc1` (stereo not drawn), the GI50 with HT-29, in the assay with NCI-H23, in the assay on ACHN, in the assay with 786-0, in the assay with RXF 393 and in the assay on MOLT-4 was > 100 µM (inactive) throughout. For the same compound, the GI50 in the assay with Hs-578T is > 100 µM (inactive); in the assay with MCF7 it was > 100 µM (inactive); in the assay with MDA-MB-231, > 100 µM (inactive); in the assay on OVCAR-8, > 100 µM (inactive); with SK-MEL-28, > 100 µM (inactive); in the assay with EKVX, 83 µM (inactive). For the same compound, the GI50 in the assay on HCT-15 is above 100 µM; in the assay with SK-MEL-2, > 100 µM (inactive); in the assay with SR, > 100 µM (inactive); in the assay on Malme-3M it was > 100 µM (inactive); in the assay on OVCAR-5, > 100 µM (inactive); with RPMI-8226, > 100 µM (inactive). In addition, the GI50 in the assay on OVCAR-3 is > 100 µM (inactive).
With `CC(=O)Oc1ccc2c(c1)c1c(=O)oc(C)nc1n2Cc1ccccc1`, the GI50 in the assay with HT-29 was > 89.3 µM (inactive); in the assay on NCI-H23 it was > 63.5 µM (inactive); with SN12C, 66.8 µM (inactive); in the assay with ACHN, 28.7 µM (inactive); with 786-0, 39.6 µM (inactive); in the assay with RXF 393, 14.8 µM (inactive). Also, the GI50 in the assay with MOLT-4 is 71.8 µM (inactive); with Hs-578T, > 73.6 µM (inactive); in the assay on MCF7, 47.8 µM (inactive); in the assay with MDA-MB-231, 33.7 µM (inactive); in the assay with OVCAR-8 it was 37.2 µM (inactive); in the assay on SK-MEL-28, 46.2 µM (inactive). The GI50 with EKVX was > 53.5 µM (inactive); in the assay on HCT-15 it was 26.7 µM; in the assay with SK-MEL-2, 19.2 µM (inactive); in the assay with SR it was > 52.4 µM (inactive); in the assay with Malme-3M, 73.6 µM (inactive); in the assay on OVCAR-5, > 84.5 µM (inactive). Further, the values for the GI50 in the assay on RPMI-8226 and with OVCAR-3 were 56.4 µM (inactive) and 77.6 µM (inactive), respectively.
As for `Cc1ccc2c(ccc3c[n+]4ccccc4c(C)c32)c1.[O-][Cl+3]([O-])([O-])[O-]`, the GI50 with HT-29 was 6.15 µM (inactive); in the assay with NCI-H23, 1.32 µM (inactive); in the assay on SN12C, 0.402 µM (active); in the assay with ACHN, 6.7 µM (inactive); with 786-0 it was 2.51 µM (inactive); in the assay with RXF 393 it was 26.4 µM (inactive). For the same compound, the GI50 was 7.91 µM (inactive) in the assay on MOLT-4; 3.05 µM (inactive) in the assay with Hs-578T; 2.89 µM (inactive) in the assay with MCF7; 6.61 µM (inactive) in the assay on MDA-MB-231; 2.29 µM (inactive) in the assay with OVCAR-8; 3.17 µM (inactive) with SK-MEL-28. Further, the GI50 in the assay on EKVX was 62.4 µM (inactive); with HCT-15, above 100 µM; with SK-MEL-2, 1.39 µM (inactive); with SR, 1.21 µM (inactive); in the assay on Malme-3M, 1.32 µM (inactive); in the assay on OVCAR-5 it was 10.5 µM (inactive). The GI50 with RPMI-8226 is 4.15 µM (inactive); in the assay with OVCAR-3, 1.12 µM (active).
Turning to `S=c1c2cc(I)ccc2nc(S)n1Cc1ccccc1`, the GI50 with HT-29 is 18.4 µM (inactive); in the assay on NCI-H23 it was 2.91 µM (inactive); in the assay with SN12C it was 3.16 µM (inactive); in the assay with ACHN, 3.06 µM (inactive); in the assay with 786-0, 5.96 µM (inactive); in the assay on RXF 393 it was 2.17 µM (inactive). For the same compound, the GI50 in the assay with MOLT-4 is 3.18 µM (inactive); with Hs-578T it was 7.16 µM (inactive); with MCF7, 5.42 µM (inactive); in the assay with MDA-MB-231 it was 6.37 µM (inactive); with OVCAR-8, 5.57 µM (inactive); with SK-MEL-28, 3.79 µM (inactive). In addition, the GI50 in the assay with EKVX is 3.71 µM (inactive); in the assay with HCT-15 it was 3.78 µM; in the assay on SK-MEL-2 it was 3.14 µM (inactive); with SR, 3.64 µM (inactive); in the assay on Malme-3M, 4.01 µM (inactive); with OVCAR-5 it was 17 µM (inactive). In addition, the GI50 in the assay with RPMI-8226 was 2.95 µM (inactive); in the assay with OVCAR-3, 2.9 µM (inactive).
Regarding `c1ccc2c(c1)CCN1CCc3c([nH]c4ccccc34)C21` (stereo not drawn), the GI50 in the assay with HT-29 was 26.9 µM (inactive); in the assay with NCI-H23 it was 38.8 µM (inactive); with SN12C, 32.7 µM (inactive); in the assay on ACHN, 31.3 µM (inactive); in the assay with 786-0, 38.3 µM (inactive); with RXF 393 it was 21.5 µM (inactive). Besides, the GI50 with MOLT-4 was 24.5 µM (inactive); in the assay with Hs-578T, 53.2 µM (inactive); in the assay with MCF7, 63.7 µM (inactive); in the assay on MDA-MB-231, 35.3 µM (inactive); in the assay with OVCAR-8, 31.8 µM (inactive); in the assay on SK-MEL-28 it was 19.1 µM (inactive). Besides, the GI50 with EKVX is 28.2 µM (inactive); with HCT-15, 36.9 µM; with SK-MEL-2, 23 µM (inactive); with SR it was 24.4 µM (inactive); with Malme-3M, 18.1 µM (inactive); in the assay with OVCAR-5, 22.4 µM (inactive). Besides, the GI50 in the assay with RPMI-8226 was 23 µM (inactive); with OVCAR-3, 24 µM (inactive).
